Laboratory results as given in US10940139B2, “Compounds that interact with the Ras superfamily for the treatment of cancers, inflammatory diseases, rasopathies, and fibrotic disease” (Shy Therapeutics LLC, priority 2017, dated 2021).

What was measured:
[1] = target: K-Ras GTP binding domain across wild type and mutant K-Ras; experiment: SPA and MST studies, summary range across K-Ras forms; conditions: read-out: affinity of GTP for the K-Ras GTP binding domain
From the text: For the first time, the affinity of GTP for the GTP binding domain of K-Ras utilizing a Scintillation Proximity Assay (SPA) and MicroScale Thermophoresis (MST) has been measured and disclosed herein. These methods were not available when Wittinghofer and colleagues (referenced above) undertook their studies.
(§1) This therefore led to the novel, unanticipated conclusion that compounds such as small molecules could be discovered that would bind to a Ras GTP binding domain and compete with the binding of GTP to Ras.
(§2) For the first time, the affinity of GTP for the GTP binding domain of K-Ras utilizing a Scintillation Proximity Assay (SPA) and MicroScale Thermophoresis (MST) has been measured and disclosed herein. These methods were not available when Wittinghofer and colleagues undertook their studies.
See Khawaja et al., “Scintillation proximity assay in lead discovery”, Expert Opin. Drug Discov., 2008 November; 3(11):1267-80 regarding SPA procedures. […]

K-Ras (G12C) [2] = target: T1, K-Ras (G12C) (Homo sapiens (Human), UniProt P01116, G12C); experiment: MicroScale Thermophoresis (MST), GTP affinity for binding domain
From the text: as §2, §1
(§3) See Khawaja et al., “Scintillation proximity assay in lead discovery”, Expert Opin. Drug Discov., 2008 November; 3(11):1267-80 regarding SPA procedures. See the following references regarding MST technology: Wienken et al., Nature Communications (2010), Protein binding assays in biological liquids using MicroScale Thermophoresis; Jerabek-Willemsen et al., ASSAY and Drug Development Technologies (2011), Molecular interaction studies using MicroScale Thermophoresis; Lin et al., Cell (2012), Inhibition of basal FGF receptor signaling by dimeric Grb2; Seidel et al., Angewandte Chemie (2012), Label-Free MicroScale Thermophoresis discriminates sites and affinity of protein-ligand binding; Seidel et al., Methods (2012), MicroScale Thermophoresis quantifies biomolecular interactions under previously challenging conditions; Parker & Newstead, Nature (2014), Molecular basis of nitrate uptake by the plant nitrate transporter NRT1.1; and Jerabek-Willemsen et al., Journal of Molecular Structure (2014), MicroScale Thermophoresis: Interaction analysis and beyond.

K-Ras (Q61H/G12C) [3] = target: T2, K-Ras (Q61H/G12C) (Homo sapiens (Human), UniProt P01116, G12C/Q61H); experiment: as above
From the text: as §2, §1, §3

K-Ras (G12D) [4] = target: T3, K-Ras (G12D) (Homo sapiens (Human), UniProt P01116, G12D); experiment: as above
From the text: as §2, §1, §3

KRas wild type [5] = target: T4, KRas wild type (Homo sapiens (Human), UniProt P01116); experiment: as above
From the text: as §2, §1, §3

K-Ras (Q61H/G12D) [6] = target: T5, K-Ras (Q61H/G12D) (Homo sapiens (Human), UniProt P01116, G12D/Q61H); experiment: as above
From the text: as §2, §1, §3

K-Ras (Q61H) [7] = target: T6, K-Ras (Q61H) (Homo sapiens (Human), UniProt P01116, Q61H); experiment: as above
From the text: as §2, §1, §3

Rho-A [8] = target: T7, Rho-A (Homo sapiens (Human), UniProt P61586); experiment: as above
K-Ras (G12C) [9] = target: T1, K-Ras (G12C); experiment: Scintillation Proximity Assay (SPA), GTP affinity for binding domain
From the text: as §2, §1, §3

K-Ras (Q61H/G12C) [10] = target: T2, K-Ras (Q61H/G12C); experiment: as above
From the text: as §2, §1, §3

K-Ras (G12D) [11] = target: T3, K-Ras (G12D); experiment: as above
From the text: as §2, §1, §3

KRas wild type [12] = target: T4, KRas wild type; experiment: as above
From the text: as §2, §1, §3

K-Ras (Q61H/G12D) [13] = target: T5, K-Ras (Q61H/G12D); experiment: as above
From the text: as §2, §1, §3

K-Ras (Q61H) [14] = target: T6, K-Ras (Q61H); experiment: as above
From the text: as §2, §1, §3

Rac-1 [15] = target: T8, Rac-1 (Homo sapiens (Human), UniProt P63000); experiment: MicroScale Thermophoresis (MST), GTP affinity for binding domain
[16] = target: GTP binding domain of Ras; conditions: literature, kinetic and filter binding measurements with radiolabeled GDP and GTP; cited from earlier work
Rac-1 [17] = target: T8, Rac-1; experiment: Scintillation Proximity Assay (SPA), GTP affinity for binding domain
[18] = target: Rac-1 and Rho-A members of the Rho subfamily; experiment: SPA and MST studies, summary range for Rho subfamily members; conditions: read-out: affinity of GTP for the binding domain of Rho subfamily members
From the text: as §1, §3

Rho-A [19] = target: T7, Rho-A; experiment: Scintillation Proximity Assay (SPA), GTP affinity for binding domain

T6 sequence (P01116-2 other isoform, or with tags, fused parts or gaps Q61H): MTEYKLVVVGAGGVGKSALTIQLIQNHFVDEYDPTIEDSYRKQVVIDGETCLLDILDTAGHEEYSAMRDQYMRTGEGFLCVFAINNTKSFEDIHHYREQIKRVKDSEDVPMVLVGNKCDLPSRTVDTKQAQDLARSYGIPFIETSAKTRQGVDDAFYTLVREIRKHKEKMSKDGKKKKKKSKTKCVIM
T1 sequence (P01116-2 other isoform, or with tags, fused parts or gaps G12C): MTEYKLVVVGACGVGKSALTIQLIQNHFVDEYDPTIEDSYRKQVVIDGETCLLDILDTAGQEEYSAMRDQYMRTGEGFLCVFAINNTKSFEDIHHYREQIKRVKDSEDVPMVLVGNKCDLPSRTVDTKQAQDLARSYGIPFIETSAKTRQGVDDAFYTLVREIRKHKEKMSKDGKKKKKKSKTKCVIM
T3 sequence (P01116-2 other isoform, or with tags, fused parts or gaps G12D): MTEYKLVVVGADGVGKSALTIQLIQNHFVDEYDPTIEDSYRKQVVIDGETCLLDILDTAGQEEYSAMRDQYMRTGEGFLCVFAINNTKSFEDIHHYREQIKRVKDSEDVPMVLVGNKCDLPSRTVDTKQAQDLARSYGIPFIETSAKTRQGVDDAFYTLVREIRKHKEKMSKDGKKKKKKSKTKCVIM
T2 sequence (P01116-2 other isoform, or with tags, fused parts or gaps G12C/Q61H): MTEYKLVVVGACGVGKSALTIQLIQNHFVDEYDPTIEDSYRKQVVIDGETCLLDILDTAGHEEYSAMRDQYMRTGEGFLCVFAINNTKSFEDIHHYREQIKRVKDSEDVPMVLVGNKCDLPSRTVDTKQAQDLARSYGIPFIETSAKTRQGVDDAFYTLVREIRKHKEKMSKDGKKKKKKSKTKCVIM
T5 sequence (P01116-2 other isoform, or with tags, fused parts or gaps G12D/Q61H): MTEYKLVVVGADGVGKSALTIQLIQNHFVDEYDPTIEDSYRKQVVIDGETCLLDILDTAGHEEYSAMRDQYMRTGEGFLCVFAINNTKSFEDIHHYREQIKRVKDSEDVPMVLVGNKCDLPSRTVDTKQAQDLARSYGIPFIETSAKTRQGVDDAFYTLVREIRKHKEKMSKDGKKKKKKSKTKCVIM
T4 sequence (P01116-2 other isoform, or with tags, fused parts or gaps): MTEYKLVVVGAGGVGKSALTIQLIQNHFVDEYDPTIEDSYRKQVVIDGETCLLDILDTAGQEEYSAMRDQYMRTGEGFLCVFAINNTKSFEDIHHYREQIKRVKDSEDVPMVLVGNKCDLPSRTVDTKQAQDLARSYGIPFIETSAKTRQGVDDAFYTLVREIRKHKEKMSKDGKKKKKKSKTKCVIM
T7 sequence (P61586 whole entry, the tested form may be a part): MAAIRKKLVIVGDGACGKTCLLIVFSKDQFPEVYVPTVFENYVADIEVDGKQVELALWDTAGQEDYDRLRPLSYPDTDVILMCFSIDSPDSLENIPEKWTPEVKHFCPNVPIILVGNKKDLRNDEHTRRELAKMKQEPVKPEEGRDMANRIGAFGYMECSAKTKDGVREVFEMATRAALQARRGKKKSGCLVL

- Kd [1]: 100 to 465 nM
- Kd (K-Ras (G12C) [2]): 207 ± 46 nM
- Kd (K-Ras (Q61H/G12C) [3]): 266 ± 57 nM
- Kd (K-Ras (G12D) [4]): 244 ± 12 nM
- Kd (KRas wild type [5]): 463 ± 2 nM
- Kd (K-Ras (Q61H/G12D) [6]): 268 ± 108 nM
- Kd (K-Ras (Q61H) [7]): 157 ± 21 nM
- Kd (Rho-A [8]): 130 ± 5 nM
- Kd (K-Ras (G12C) [9]): 258 ± 18 nM
- Kd (K-Ras (Q61H/G12C) [10]): 104 ± 11 nM
- Kd (K-Ras (G12D) [11]): 270 ± 15 nM
- Kd (KRas wild type [12]): 243 ± 15 nM
- Kd (K-Ras (Q61H/G12D) [13]): 135 ± 19 nM
- Kd (K-Ras (Q61H) [14]): 118 ± 11 nM
- Kd (Rac-1 [15]): 166 ± 10 nM
- Kd (Rac-1 [17]): 151 ± 14 nM
- Kd [18]: 120 to 170 nM
- Kd (Rho-A [19]): 129 ± 12 nM
SMILES: Nc1nc2c(ncn2[C@@H]2O[C@H](COP(=O)(O)OP(=O)(O)OP(=O)(O)O)[C@@H](O)[C@H]2O)c(=O)[nH]1 [GTP]
- affinity for the GTP binding domain of Ras [16]: single to double digit picomolar
